{
  "source": "patent US11291648B2",
  "about": "“Powdered formulations of cromolyn sodium and alpha-lactose” (The General Hospital Corporation, priority 2018, dated 2022)",
  "key": {"[1]": {"experiment": "Particle size distribution (PSD) of formulation components", "type": "physicochemical", "conditions": "for D50 (<5 μm) / D90 (<10 μm): Magnesium Stearate (micronized), Table 4; for D10 / D50 / D90: Cromolyn API (micronized), Table 2; for D10 (3-6 μm) / D50 (20-25 μm) / D90 (50-60 μm): α-Lactose (DFE Pharma Lactohale LH201), Table 3", "excerpt": "The methodology included particle size determination (PSD); powdered x-ray crystallization diffraction (PXRD); and gravimetric vapor sorption (GVS)."}, "[2]": {"conditions": "Table 5, Gilani et al.; cited from earlier work"}},
  "note": "Where two headings read alike, the source gives them in different places.",
  "data": [
    {"molecule": "Magnesium Stearate [Lot 15-0077]", "values": [
      {"measurement": "D50 (<5 μm)", "setting": "[1]; listed as 15-0077", "result": 4.82, "unit": "μm"},
      {"measurement": "D90 (<10 μm)", "setting": "[1]; listed as 15-0077", "result": 9.28, "unit": "μm"}
    ]},
    {"molecule": "O=C(O)c1cc(=O)c2c(OCC(O)COc3cccc4oc(C(=O)O)cc(=O)c34)cccc2o1", "note": "[Lot # 13-0105, Cromolyn sodium]", "values": [
      {"measurement": "D10", "setting": "[1]; listed as 13-0105", "result": 0.5, "unit": "μm"},
      {"measurement": "D50", "setting": "[1]; listed as 13-0105", "result": 1.9, "unit": "μm"},
      {"measurement": "D90", "setting": "[1]; listed as 13-0105", "result": 4.6, "unit": "μm"}
    ]},
    {"molecule": "O=C(O)c1cc(=O)c2c(OCC(O)COc3cccc4oc(C(=O)O)cc(=O)c34)cccc2o1", "note": "[Lot # 15-0013, Cromolyn sodium]", "values": [
      {"measurement": "D10", "setting": "[1]; listed as 15-0013", "result": 0.6, "unit": "μm"},
      {"measurement": "D50", "setting": "[1]; listed as 15-0013", "result": 1.8, "unit": "μm"},
      {"measurement": "D90", "setting": "[1]; listed as 15-0013", "result": 3.8, "unit": "μm"}
    ]},
    {"molecule": "OC[C@H]1O[C@@H](O[C@H]2[C@H](O)[C@@H](O)[C@@H](O)O[C@@H]2CO)[C@H](O)[C@@H](O)[C@H]1O", "note": "[Lot# 13-0094, α-Lactose]", "values": [
      {"measurement": "D10 (3-6 μm)", "setting": "[1]; listed as 13-0094", "result": 3, "unit": "μm"},
      {"measurement": "D50 (20-25 μm)", "setting": "[1]; listed as 13-0094", "result": 21, "unit": "μm"},
      {"measurement": "D90 (50-60 μm)", "setting": "[1]; listed as 13-0094", "result": 54, "unit": "μm"}
    ]},
    {"molecule": "OC[C@H]1O[C@@H](O[C@H]2[C@H](O)[C@@H](O)[C@@H](O)O[C@@H]2CO)[C@H](O)[C@@H](O)[C@H]1O", "note": "[α-Lactose]", "values": [
      {"measurement": "Particle size D10", "setting": "[1]; component of Batch 1, Table 8", "result": 3, "unit": "μm"},
      {"measurement": "Particle size D50", "setting": "[1]; component of Batch 1, Table 8", "result": 21, "unit": "μm"},
      {"measurement": "Particle size D90", "setting": "[1]; component of Batch 1, Table 8", "result": 54, "unit": "μm"},
      {"measurement": "Particle size D10", "setting": "[1]; component of Batch 2, Table 8", "result": 4, "unit": "μm"},
      {"measurement": "Particle size D50", "setting": "[1]; component of Batch 2, Table 8", "result": 23, "unit": "μm"},
      {"measurement": "Particle size D90", "setting": "[1]; component of Batch 2, Table 8", "result": 57, "unit": "μm"},
      {"measurement": "Particle size D10", "setting": "[1]; component of Batch 3, Table 8", "result": 3, "unit": "μm"},
      {"measurement": "Particle size D50", "setting": "[1]; component of Batch 3, Table 8", "result": 22, "unit": "μm"},
      {"measurement": "Particle size D90", "setting": "[1]; component of Batch 3, Table 8", "result": 59, "unit": "μm"}
    ]},
    {"molecule": "OC[C@H]1O[C@@H](O[C@H]2[C@H](O)[C@@H](O)[C@@H](O)O[C@@H]2CO)[C@H](O)[C@@H](O)[C@H]1O", "note": "[Batch P325M, α-Lactose]", "values": [
      {"measurement": "D10", "setting": "[2]", "result": "6.6 ± 0.8"},
      {"measurement": "D90", "setting": "[2]", "result": "74.1 ± 3.8"}
    ]},
    {"molecule": "Magnesium Stearate [Lot 14-0035]", "values": [
      {"measurement": "D50 (<5 μm)", "setting": "[1]; listed as 14-0035", "result": 3.56, "unit": "μm"},
      {"measurement": "D90 (<10 μm)", "setting": "[1]; listed as 14-0035", "result": 6.74, "unit": "μm"}
    ]},
    {"molecule": "OC[C@H]1O[C@@H](O[C@H]2[C@H](O)[C@@H](O)[C@@H](O)O[C@@H]2CO)[C@H](O)[C@@H](O)[C@H]1O", "note": "[Lot# 15-0066, α-Lactose]", "values": [
      {"measurement": "D10 (3-6 μm)", "setting": "[1]; listed as 15-0066", "result": 4, "unit": "μm"},
      {"measurement": "D50 (20-25 μm)", "setting": "[1]; listed as 15-0066", "result": 23, "unit": "μm"},
      {"measurement": "D90 (50-60 μm)", "setting": "[1]; listed as 15-0066", "result": 57, "unit": "μm"}
    ]},
    {"molecule": "O=C(O)c1cc(=O)c2c(OCC(O)COc3cccc4oc(C(=O)O)cc(=O)c34)cccc2o1", "note": "[Lot # 15-0079, Cromolyn sodium]", "values": [
      {"measurement": "D90", "setting": "[1]; listed as 15-0079", "result": 4.2, "unit": "μm"}
    ]},
    {"molecule": "O=C(O)c1cc(=O)c2c(OCC(O)COc3cccc4oc(C(=O)O)cc(=O)c34)cccc2o1", "note": "[Cromolyn Sodium, Cromolyn sodium]", "values": [
      {"measurement": "Particle size D10", "setting": "[1]; component of Batch 1, Table 8", "result": 0.6, "unit": "μm"},
      {"measurement": "Particle size D50", "setting": "[1]; component of Batch 1, Table 8", "result": 1.8, "unit": "μm"},
      {"measurement": "Particle size D90", "setting": "[1]; component of Batch 1, Table 8", "result": 3.8, "unit": "μm"},
      {"measurement": "Particle size D90", "setting": "[1]; component of Batch 2, Table 8", "result": 4.2, "unit": "μm"},
      {"measurement": "Particle size D10", "setting": "[1]; component of Batch 3, Table 8", "result": 0.6, "unit": "μm"},
      {"measurement": "Particle size D50", "setting": "[1]; component of Batch 3, Table 8", "result": 1.8, "unit": "μm"},
      {"measurement": "Particle size D90", "setting": "[1]; component of Batch 3, Table 8", "result": 3.8, "unit": "μm"},
      {"measurement": "D10", "setting": "[2]", "result": "0.7 ± 0.1"},
      {"measurement": "D50", "setting": "[2]", "result": "1.52 ± 0.2"},
      {"measurement": "D90", "setting": "[2]", "result": "3.03 ± 0.02"}
    ]},
    {"molecule": "OC[C@H]1O[C@@H](O[C@H]2[C@H](O)[C@@H](O)[C@@H](O)O[C@@H]2CO)[C@H](O)[C@@H](O)[C@H]1O", "note": "[Lot# 16-0127, α-Lactose]", "values": [
      {"measurement": "D10 (3-6 μm)", "setting": "[1]; listed as 16-0127", "result": 3, "unit": "μm"},
      {"measurement": "D50 (20-25 μm)", "setting": "[1]; listed as 16-0127", "result": 22, "unit": "μm"},
      {"measurement": "D90 (50-60 μm)", "setting": "[1]; listed as 16-0127", "result": 59, "unit": "μm"}
    ]},
    {"molecule": "Magnesium Stearate [Lot 18-0038]", "values": [
      {"measurement": "D50 (<5 μm)", "setting": "[1]; listed as 18-0038", "result": 4.33, "unit": "μm"},
      {"measurement": "D90 (<10 μm)", "setting": "[1]; listed as 18-0038", "result": 8.04, "unit": "μm"}
    ]},
    {"molecule": "Magnesium Stearate [Mg St]", "values": [
      {"measurement": "Particle size D10", "setting": "[1]; component of Batch 1, Table 8", "result": 3.3, "unit": "μm"},
      {"measurement": "Particle size D50", "setting": "[1]; component of Batch 1, Table 8", "result": 8.3, "unit": "μm"},
      {"measurement": "Particle size D90", "setting": "[1]; component of Batch 1, Table 8", "result": 22.6, "unit": "μm"},
      {"measurement": "Particle size D50", "setting": "[1]; component of Batch 2, Table 8", "result": 4.82, "unit": "μm"},
      {"measurement": "Particle size D90", "setting": "[1]; component of Batch 2, Table 8", "result": 9.28, "unit": "μm"},
      {"measurement": "Particle size D50", "setting": "[1]; component of Batch 3, Table 8", "result": 4.33, "unit": "μm"},
      {"measurement": "Particle size D90", "setting": "[1]; component of Batch 3, Table 8", "result": 8.04, "unit": "μm"}
    ]},
    {"molecule": "OC[C@H]1O[C@@H](O[C@H]2[C@H](O)[C@@H](O)[C@@H](O)O[C@@H]2CO)[C@H](O)[C@@H](O)[C@H]1O", "note": "[Batch P450M, α-Lactose]", "values": [
      {"measurement": "D10", "setting": "[2]", "result": "2.5 ± 0.3"},
      {"measurement": "D90", "setting": "[2]", "result": "26.5 ± 0.3"}
    ]}
  ]
}
